Data taken from US11116765B2 (GRIFOLS, S.A., priority 2014, dated 2021).
Like-named read-outs stand apart in the source and are kept apart here.

How the values were obtained:
M. avium 104 [1] = settings: 100 mcg/mL
M. abscessus 105 = settings: 100 mcg/mL
[2] = test system: Mycobacterium avium subsp hominissuis (MAH) MAC104 strain; assay: MAH lung infection in C57BL/6 mice, intranasal treatment; assay type: in vivo; settings: 3 weeks
M. avium 104 [3] = settings: THP-1 human macrophages, 20 mcg/mL
M. avium 104 [4] = settings: THP-1 human macrophages, 200 mcg/mL
M. avium = settings: incubation of M. avium with antibiotic; cited from earlier work

| SMILES | Biofilm Colonization, Time: 4 Days (M. avium 104 [1]) | Biofilm Colonization, Time: 4 Days (M. abscessus 105) | effect on the growth of MAH in the lungs of mice compared with saline control [2] | Colonization in macrophages, Time: 4 days (M. avium 104 [3]) | Colonization in macrophages, Time: 4 days (M. avium 104 [4]) | effect on M. avium biofilm formation (M. avium) |
| --- | --- | --- | --- | --- | --- | --- |
| O=C(O)c1cn(C2CC2)c2cc(N3CCNCC3)c(F)cc2c1=O [Ciprofloxacin, ciprofloxacin] | 4.0 ± 0.3 × 10^7 | 3.0 ± 0.5 × 10^7 | no significant effect | 1.1 ± 0.4 × 10^4 | 5.0 ± 0.3 × 10^4 |  |
| CC1(C)S[C@@H]2[C@H](NC(=O)[C@H](N)c3ccccc3)C(=O)N2[C@H]1C(=O)O [ampicillin] |  |  |  |  |  | no effect on biofilm |
| [H]/N=C(/N)N[C@H]1[C@H](O)[C@@H](O)[C@H](O[C@@H]2O[C@@H](C)[C@](O)(C=O)[C@H]2O[C@@H]2O[C@@H](CO)[C@H](O)[C@@H](O)[C@@H]2NC)[C@@H](N/C(N)=N\[H])[C@@H]1O [streptomycin] |  |  |  |  |  | increase |
